Patent US20230381162A1, “TREATMENTS OF ANGIOEDEMA” (KALVISTA PHARMACEUTICALS LIMITED, priority 2020, published 2023)

Experiments:
[1] = human, in vivo; cited from earlier work
[2] = higher doses; cited from earlier work
[3] = Phase 1 single ascending dose study: plasma concentrations (PK); assay type: in vivo, human; conditions: oral capsule, fasted, 5 mg to 600 mg
Description: (§1) This study was a randomized, double-blind, placebo-controlled single ascending dose (SAD) and crossover studies for food effect and capsule/tablet formulations.
Samples for pharmacokinetic (PK) and PD assessment were taken at repeated intervals over 48 hours.
Plasma samples used for PK assessment were analysed using a validated liquid chromatography tandem mass spectrometry (LC MS/MS) method.

[4] = Phase 1 single ascending dose study: safety and tolerability; assay type: in vivo, human; conditions: phase I trial, healthy males
Description: as §1

[5] = tested on: angioedema attacks in adult subjects with hereditary angioedema type I or II; assay: Phase 2 study Part 2: on-demand treatment of HAE attacks, efficacy; assay type: in vivo, human; conditions: 600 mg
Description: This was a phase 2, two-part, two-sequence, two-period (2×2) cross-over clinical trial. Subjects with HAE type I or II were recruited through HAE treatment centres in Europe and US.
(§2) In Part 2, the subjects were randomized 1:1 to 2 treatment sequences. This part of the study was conducted away from the clinic or hospital. In Sequence 1 (study arm 1) subjects received a single dose of 600 mg of the compound to treat the first eligible HAE attack. Following resolution of this attack, subjects received a single dose of placebo to treat the second eligible HAE attack.
In Sequence 2 (study arm 2) subjects received a single dose of placebo to treat the first eligible HAE attack. Following resolution of this attack, subjects received a single dose of 600 mg of the compound to treat the second eligible HAE attack.
Laryngeal or facial attacks were not eligible for treatment. HAE attacks must have been treated within the first hour of onset and before reaching severe on the global attack severity scale. Subjects must also have been able to identify the start of a HAE attack. Upon onset of the eligible HAE attack, subjects notified the dedicated study physician or qualified designee with a description of the HAE attack. The dedicated study physician or qualified designee confirmed eligibility of the HAE attack and agreed to study drug being administered. HAE attacks required documentation, on the Subject Diary, of attack location, attack symptoms, time of onset, attack severity, and time of last substantial meal prior to dosing. Subjects took study drug, as instructed, and completed timed assessments of their HAE attack symptoms for a 48 h period as documented below in Table 3. The dedicated study physician or qualified designee contacted the subject within 24 h of the eligible HAE attack to confirm the subject's safety and wellbeing. Subjects were instructed to contact the dedicated study physician or qualified designee in case of any safety concerns. In the case of hypersensitivity, subjects contacted the dedicated study physician or qualified designee or contact the nearest emergency service. The dedicated study physician or qualified designee was available 24 h/day and 7 days/week to receive subject calls.
Time to use of conventional attack treatment was assessed. The subject diary captured the efficacy endpoints including time to use of conventional attack treatment and HAE attack severity.
Overall HAE attack severity was assessed on a 5-point Likert scale (5LS) scored as none, mild, moderate, severe and very severe.
Change in HAE attack severity was assessed using a 7-point transition question (7TQ), scored as Much better/Better/A little better/No change/A little worse/Worse/Much worse.
The type of HAE attack symptoms (abdominal pain, skin pain and skin swelling) was each assessed on a 100 mm visual analogue scale (VAS) anchored at 0 (none) and 100 (very severe).
The primary endpoint, time to use of conventional attack treatment, was analyzed using a generalization of Gehan's test proposed by Feingold and Gillespie (1996) (Crossover trials with censored data. Statistics in Medicine 1996; 15(10): 953-967) to reflect the repeat measures on each subject. Subjects were treated as censored if no worsening occurs within 12 h of study drug.
The proportion of HAE attacks that worsen by one level or more on the 5LS or that require conventional attack treatment within 12 h of study drug was analyzed using Prescott's test (1981) (The comparison of success rates in cross-over trials in the presence of an order effect. Applied Statistics 1981; 30: 9-15) to compare the treatment arms.
A similar approach to that used for the primary endpoint was followed for the analysis of the time between study drug and HAE attack worsening by one level or more on the 5LS or use of conventional attack treatment, whichever comes first within 12 h. […]

[6] = Phase 2 study: safety (adverse events); assay type: in vivo, human
Description: In Part 1, subjects received a single oral dose of 600 mg of the compound to investigate the safety, PK and PD of the compound during the intercritical period between HAE attacks.
as §2
Safety Variables: • AEs, including serious adverse events (SAEs). • Laboratory test results (clinical chemistry, hematology, coagulation, and urinalysis). • Vital signs (SBP, DBP, PR, RR, body temperature). • Physical examination findings. • ECG results. • Pregnancy test (female subjects of child-bearing potential).
AEs were coded using the Medical Dictionary for Regulatory Activities (MedDRA) dictionary (v21.0 or higher) and classified by preferred term and system organ class (SOC). Listings of treatment-emergent adverse events (TEAEs), serious TEAEs, and TEAEs causing premature discontinuation will be provided by sequence group, and further classified by TEAE severity and relationship to study drug.

[7] = Phase 1 multiple dose study in healthy adult subjects: safety, ECG; assay type: in vivo, human; conditions: 3 x 600 mg every 8, 4 or 2 hours, total 1800 mg
Description: This is a phase 1, double-blind, placebo-controlled, multiple-dose, multiple-cohort study to evaluate safety and tolerability of the compound as well as of the ECG effects of the compound formulated as 100 mg Film Coated Tablets in healthy adult male and female subjects.
During the study, oral doses of 600 mg of the compound as Film Coated Tablets (six 100 mg tablets) or 6 matching placebo tablets will be administered once every 8 hours (Cohort 1) every 4 hours (Cohort 2), or every 2 hours (Cohort 3 and 4) to healthy adult male and female subjects up to a total dose of 1800 mg. In Cohorts 1, 2 and 3, 6 subjects will receive the compound as 100 mg Film Coated Tablets and 2 subjects will receive the placebo for a total of 8 subjects per cohort. In Cohort 4, 12 subjects will receive the compound as 100 mg Film Coated Tablets and 6 subjects will receive the placebo for a total of 18 subjects.
A Holter monitor will be attached to each subject in order to continuously record ECGs. The monitor will be attached 1 hour before the first dose and will remain attached until after the final blood sample collection. The electrodes for the Holter monitor will be checked by a member of the clinic staff at appropriate intervals to ensure they are attached.

Human plasma kallikrein = molecular target: T1, Human plasma kallikrein (Homo sapiens, UniProt P03952); assay: Plasma kallikrein inhibitory activity in vitro (purified enzyme, fluorogenic substrate); assay type: biochemical
T1 construct: purchased Protogen
T1 sequence (P03952 391-638 limits assumed): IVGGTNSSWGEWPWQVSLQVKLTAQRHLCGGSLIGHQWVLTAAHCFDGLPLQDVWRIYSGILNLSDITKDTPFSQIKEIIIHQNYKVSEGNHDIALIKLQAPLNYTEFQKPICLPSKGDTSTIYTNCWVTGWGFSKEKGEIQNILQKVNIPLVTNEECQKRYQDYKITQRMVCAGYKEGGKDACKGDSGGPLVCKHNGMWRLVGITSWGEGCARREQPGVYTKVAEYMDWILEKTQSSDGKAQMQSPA
T1 sequence (P03952 20-390 partner limits assumed): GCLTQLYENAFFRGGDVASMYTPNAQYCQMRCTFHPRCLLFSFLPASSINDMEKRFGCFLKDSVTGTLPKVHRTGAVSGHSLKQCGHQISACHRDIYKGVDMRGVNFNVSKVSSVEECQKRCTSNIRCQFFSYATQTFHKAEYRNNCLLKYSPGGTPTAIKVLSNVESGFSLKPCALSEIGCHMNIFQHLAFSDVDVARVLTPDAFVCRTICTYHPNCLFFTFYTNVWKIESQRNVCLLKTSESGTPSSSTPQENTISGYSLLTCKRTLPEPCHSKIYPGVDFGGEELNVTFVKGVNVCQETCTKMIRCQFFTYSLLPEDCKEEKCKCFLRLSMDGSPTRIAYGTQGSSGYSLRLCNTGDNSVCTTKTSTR
Description: Human plasma kallikrein (Protogen) was incubated at 25° C. with the fluorogenic substrate H-DPro-Phe-Arg-AFC and various concentrations of the test compound. Residual enzyme activity (initial rate of reaction) was determined by measuring the change in […] at 410 nm and the IC50 value for the test compound was determined.

purified PKa = purified PKa (Homo sapiens, UniProt P03952); assay: Rate of formation of the enzyme-inhibitor complex (Kon) with purified PKa; assay type: biochemical
Sequence of purified PKa (P03952 391-638 limits assumed): as the sequence (P03952 391-638 limits assumed) above
Sequence of purified PKa (P03952 20-390 partner limits assumed): as the sequence (P03952 20-390 partner limits assumed) above
Description: The rate of formation of the enzyme-inhibitor complex (Kon) was determined using purified PKa rapidly mixed with a solution containing fluorogenic substrate and a concentration range of inhibitor. The time-dependent establishment of inhibition was then used to calculate the rate of formation of the enzyme-inhibitor complex for each concentration of inhibitor. The Kon was calculated by plotting the rate of inhibition versus the inhibitor concentration. Data in Table 1 are presented in μM^−1 sec^−1.

[8] = molecular target: PKa in DXS-activated plasma (Homo sapiens, UniProt P03952); assay: Catalytic activity of PKa in dextran sulfate-activated plasma (inhibitor added in vitro); assay type: biochemical; conditions: read-out: IC50 plasma enzyme
Sequence of PKa in DXS-activated plasma (P03952 391-638 limits assumed): as the sequence (P03952 391-638 limits assumed) above
Sequence of PKa in DXS-activated plasma (P03952 20-390 partner limits assumed): as the sequence (P03952 20-390 partner limits assumed) above
Description: Catalytic activity of PKa in dextran sulfate-activated (DXS, Sigma; 10 μg/ml) plasma (1:4 diluted or undiluted, VisuCon-F control plasma, Affinity Biologicals Inc) was determined by the time-dependent hydrolysis of fluorogenic substrate.

[9] = molecular target: T2, plasma kallikrein activity in pre-activated plasma (Homo sapiens, UniProt P03952); assay: Inhibition of enzyme activity of pre-activated undiluted plasma (inhibitor added after DXS); assay type: biochemical; conditions: compound 300, 1000, 3000 nM; C1-INH 3000 nM; added 3.5 minutes post DXS (FIG. 3B)
T2 construct: from tissue
T2 sequence (P03952 391-638 limits assumed): as the sequence (P03952 391-638 limits assumed) above
T2 sequence (P03952 20-390 partner limits assumed): as the sequence (P03952 20-390 partner limits assumed) above
Description: The ability of the compound to inhibit the enzyme activity of pre-activated plasma was assessed by addition of the compound after DXS stimulation. Aliquots of plasma (20 μL) were mixed with a 2.5 μL solution containing […] fluorogenic substrate (H-DPro-Phe-Arg-AFC) and a 2.5 μL solution of dextran sulphate (DXS; 100 μg/mL) which acted as an activator of the plasma kallikrein-kinin pathway. Enzyme activity was immediately measured by monitoring the accumulation of fluorescence liberated from the substrate by substrate cleavage over 16 minutes. At 3.5 minutes post DXS addition 5 μl of inhibitors or water control are were added into each well. The compound was tested at concentrations of 300, 1000 and 3000 nM. C1-INH at a concentration of 3000 nM and vehicle controls were also included.

Ecallantide
anaphylactic reactions [1]: risks of anaphylactic reactions have been reported

N#Cc1cccc([C@@H](NCC2CC2)c2ccc(F)c(NC(=O)c3cc(C(F)(F)F)nn3-c3cccc(CN)c3)c2)c1 [berotralstat]
gastrointestinal adverse effects [2]: more gastrointestinal adverse effects

COCc1nn(Cc2ccc(Cn3ccccc3=O)cc2)cc1C(=O)NCc1nccc(OC)c1F [compound of Formula A, N-[(3-fluoro-4-methoxypyridin-2-yl)methyl]-3-(methoxymethyl)-1-({4-[(2-oxopyridin-1-yl)methyl]phenyl}methyl)pyrazole-4-carboxamide]
plasma exposure [3]: rapid and dose-dependent plasma exposure | serious adverse events [4]: No serious adverse events | tolerability signals [4]: no tolerability signals | median time for attacks to be rated better or higher (7TQ) [5]: 5 h | median time to onset of symptom relief on PGI-C (7TQ) [5]: 1.6 h | median time to symptom relief, composite VAS score [5]: 6 h | attacks rescued (use of rescue medication) ([5]; at 12 hours): 15.1% | use of rescue medication ([5]; at 24 hours): 20.8% | attacks improved to none on PGI-S (5LS) ([5]; within 12 hours): 56.6% | attacks rated a little better or higher (7TQ) ([5]; within 12 hours): 83.0% | attacks rated better or higher (7TQ) ([5]; within 12 hours): 58.7% | attacks that do not worsen ([5]; within 12 hours): 79.2% | attacks improved to none on PGI-S (5LS) ([5]; within 24 hours): 66.0% | attacks rated a little better or higher (7TQ) ([5]; within 24 hours): 84.9% | attacks rated better or higher (7TQ) ([5]; within 24 hours): 67.9% | attacks that do not worsen (5LS) ([5]; within 24 hours): 69.8% | on-treatment drug-related TEAEs, number of events ([6]; Part 1, open-label, 600 mg): 8 | patients with on-treatment drug-related TEAEs ([6]; Part 1, open-label, 600 mg): 5 patients | on-treatment drug-related TEAEs, number of events ([6]; Part 2, crossover, 600 mg): 3 | serious adverse events ([6]; phase 2 trial): no serious adverse events | withdrawals due to adverse events ([6]; phase 2 trial): no patients withdrew due to adverse events | discontinuations because of an AE [7]: no subjects were discontinued because of an AE | effects on the studied ECG parameters [7]: No clinically relevant effects | serious adverse events [7]: No serious adverse events | severity of all reported adverse events [7]: mild

C1-INH: C1 inhibitor (C1-INH, Sigma Cat #E0518), used as a therapeutic benchmark for HAE [Compound C1-INH]
IC50 (Human plasma kallikrein): 50 nM | Kon (purified PKa): 40000 M⁻¹ s⁻¹ | IC50 [8]: 1700 nM | inhibition of enzyme activity on addition after activation of plasma [9]: slower action
